US8557805B2, “Fused ring compound and use thereof” (Takeda Pharmaceutical Company Limited, priority 2008, dated 2013)

Key:
[1] = biological target: T1, human liver GK (GST-hLGK1) (Homo sapiens, UniProt P35557); assay: Determination of GK activity value (Mant-ATP to Mant-ADP conversion, capillary electrophoresis); assay type: biochemical; details: reaction started with 25 mM D-glucose solution, 37° C., 60 min, concentration at midpoint between maximum activity value and control group activity value
T1 construct: with a BamHI site added to immediately before the initiation codon; made in house; host or cells: Escherichia coli BL21 (Stratagene), plasmid pGEX6P-2/hLGK1
T1 sequence (P35557 1-464 isoform P35557-3): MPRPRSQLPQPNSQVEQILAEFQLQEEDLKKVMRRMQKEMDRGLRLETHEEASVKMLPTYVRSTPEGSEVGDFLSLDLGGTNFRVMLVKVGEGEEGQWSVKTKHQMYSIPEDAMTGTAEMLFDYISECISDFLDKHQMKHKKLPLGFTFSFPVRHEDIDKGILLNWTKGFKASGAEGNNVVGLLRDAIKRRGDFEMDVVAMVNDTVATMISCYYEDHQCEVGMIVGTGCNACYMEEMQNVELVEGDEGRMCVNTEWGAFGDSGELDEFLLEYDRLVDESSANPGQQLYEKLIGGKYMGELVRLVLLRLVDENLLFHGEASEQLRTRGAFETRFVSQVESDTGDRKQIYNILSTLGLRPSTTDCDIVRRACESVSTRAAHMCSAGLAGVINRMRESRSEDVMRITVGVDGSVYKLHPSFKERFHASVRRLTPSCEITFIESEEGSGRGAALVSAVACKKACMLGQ
Procedure: Plasmid DNA to be used for the expression of a protein (GST-hLGK1) containing GST (Glutathione S-transferase) added to the amino terminal of human liver GK in Escherichia coli was prepared as follows.
First, PCR was performed using human liver cDNA (Marathon Ready cDNA, Clontech Laboratories, Inc.) as a template and two kinds of synthetic DNAs (5′-[…]-3′ (SEQ ID NO: 1) and 5′-[…]-3′ (SEQ ID NO: 2)), and the obtained DNA fragment was closed using a TOPO TA Cloning Kit (Invitrogen Corporation). PCR was performed using the obtained plasmid DNA as a template and a synthetic DNA (5′-[…] CAGAG-3′ (SEQ ID NO: 3)) with a BamHI site added to immediately before the initiation codon, and a synthetic DNA (5′-[…]-3′ (SEQ ID NO: 4)) with an EcoRI site added to immediately after the stop codon. The obtained DNA fragment was subcloned to pGEX6P-2 (Amersham Biosciences K.K.) cleaved with BamHI and EcoRI to give a plasmid (pGEX6P-2/hLGK1) for expression of human liver GK.
BL21 strain (Stratagene) transformed with pGEX6P-2/hLGK1 obtained in (1) was cultured with shaking at 37° C. for 14 hr in a 200 ml Erlenmeyer flask containing 50 ml of 100 μg/ml ampicillin-containing LB medium. The culture medium (25 ml) was diluted with 225 ml of 100 μg/ml ampicillin-containing LB medium, and further cultured with shaking at 37° C. for 1 hr in a 1 L Erlenmeyer flask. After culture, the Erlenmeyer flask was cooled on ice, 125 μL of 100 mM isopropyl-thio-β-D-galactopyranoside (IPTG) was added (final concentration 50 μM), and cultured at 17° C. for 20 hr. The culture medium was centrifuged, and the obtained fungus was disrupted by ultrasonication. The object protein (GST-hLGK1) was purified from the supernatant using Glutathione Sepharose 4B (Amersham Biosciences K.K.).
A solution (5 μL) of test compound in 50% dimethyl sulfoxide was added to each well of 384 well black plate (Nalge Nunc International K.K.). Then, a solution (35 μL) obtained by diluting GST-hLGK1 obtained in (2) with measurement buffer (containing 50 mM HEPES (pH 7.4), 200 mM KCl, 5 mM MgCl2, 2.5 mM DTT and 50 μM 2′-(or-3′)-O—(N-methylanthraniloyl)adenosine 5′-triphosphate (Mant-ATP) (Jena Bioscience GmbH)) to 6 μg/mL was added to each well.
Each well was stood at 37° C. for 10 min, and 25 mM D-glucose solution (10 μL) was added to start the reaction.
Each well after the reaction was stood at 37° C. for 60 min, and the reaction was quenched by adding 25 μL of a quenching solution (containing 200 mM HEPES (pH 7.4), 20 mM MgCl2, 200 mM EDTA, 0.03% Triton-X 100, 0.3% Coating 3 reagent (Caliper Life Sciences, Inc.)).
2′-(or -3′)-O—(N-methylanthraniloyl)adenosine 5′-triphosphate (Mant-ATP, substrate) and Mant-ADP (reaction resultant product) were separated from each well after the reaction by a microchip type capillary electrophoresis apparatus 250 HTS (Caliper Life Sciences, Inc.). The reaction rate [(reaction resultant product peak height)/(reaction resultant product peak height+substrate peak height)×100(%)] was calculated from the ratio of the substrate peak height and reaction resultant product peak height obtained by fluorescence detection (excitation wavelength 355 nm, measurement wavelength 460 nm) and used as the index of GK activity.
3.5 As a control group, the reaction rate was calculated in the same manner as above except that “solution in 50% dimethyl sulfoxide (without test compound)” was used instead of “solution of test compound in 50% dimethyl sulfoxide”.
A concentration dependency curve of the test compound was drawn with the percentage obtained by dividing the reaction rate of the well added with the test compound (test compound addition group) by the reaction rate of the control group was taken as the GK activity value of the test compound, and the concentration of the test compound at the midpoint between the maximum activity value of the test compound addition group and the control group activity value is shown as EC50 value.

Row | Structure (SMILES) | EC50 [1] | melting point
1 | CS(=O)(=O)c1ccc(Oc2cc(OC3CCOCC3)c3[nH]c(C4=NCC(CC(N)=O)S4)cc3c2)cn1 (single isomer, unassigned) [Example 32, 2-{2-[5-{[6-(Methylsulfonyl)pyridin-3-yl]oxy}-7-(tetrahydro-2H-pyran-4-yloxy)-1H-indol-2-yl]-4,5-dihydro-1,3-thiazol-5-yl}acetamide] | 16 nM | –
2 | CS(=O)(=O)c1ccc(Oc2cc(OC3CCOCC3)c3[nH]c(C4=NCC(CC(N)=O)S4)cc3c2)cn1 (single isomer, unassigned) [Example 33, 2-{2-[5-{[6-(Methylsulfonyl)pyridin-3-yl]oxy}-7-(tetrahydro-2H-pyran-4-yloxy)-1H-indol-2-yl]-4,5-dihydro-1,3-thiazol-5-yl}acetamide] | 26 nM | –
3 | CNC(=O)CC1CN=C(c2cc3cc(Oc4ccc(S(C)(=O)=O)nc4)cc(OC4CCOCC4)c3[nH]2)S1 (single isomer, unassigned) [Example 35, N-Methyl-2-{2-[5-{[6-(methylsulfonyl)pyridin-3-yl]oxy}-7-(tetrahydro-2H-pyran-4-yloxy)-1H-indol-2-yl]-4,5-dihydro-1,3-thiazol-5-yl}acetamide] | 31 nM | –
4 | CNC(=O)CC1CN=C(c2cc3cc(Oc4ccc(S(C)(=O)=O)nc4)cc(OC4CCOCC4)c3[nH]2)S1 (single isomer, unassigned) [Example 36, N-Methyl-2-{2-[5-{[6-(methylsulfonyl)pyridin-3-yl]oxy}-7-(tetrahydro-2H-pyran-4-yloxy)-1H-indol-2-yl]-4,5-dihydro-1,3-thiazol-5-yl}acetamide] | 16 nM | –
5 | CN(C)C(=O)CC1CN=C(c2cc3cc(Oc4ccc(S(C)(=O)=O)nc4)ccc3[nH]2)S1 (single isomer, unassigned) [Example 65, N,N-Dimethyl-2-[2-(5-{[6-(methylsulfonyl)pyridin-3-yl]oxy}-1H-indol-2-yl)-4,5-dihydro-1,3-thiazol-5-yl]acetamide] | 66 nM | –
6 | CC(C)(O)CC1CN=C(c2cc3cc(Oc4ccc(S(C)(=O)=O)cc4)cc(OC4CCOCC4)c3[nH]2)S1 (stereo not drawn) [Example 3, 2-Methyl-1-(2-{5-[4-(methylsulfonyl)phenoxy]-7-(tetrahydro-2H-pyran-4-yloxy)-1H-indol-2-yl}-4,5-dihydro-1,3-thiazol-5-yl)propan-2-ol] | 15 nM | 163 to 164 °C
7 | Cc1cc(Oc2ccc(S(C)(=O)=O)nc2)cc2cc(C3=NCC(CC(=O)NC[C@H](C)O)S3)[nH]c12 (stereo partly drawn) [Example 76, N-[(2S)-2-Hydroxypropyl]-2-[2-(7-methyl-5-{[6-(methylsulfonyl)pyridin-3-yl]oxy}-1H-indol-2-yl)-4,5-dihydro-1,3-thiazol-5-yl]acetamide] | – | 170 to 171 °C

Other lines, results leading:

Row | EC50 [1] | melting point | Structure (SMILES)
8 | 89 nM | – | COCCNC(=O)CC1CN=C(c2cc3cc(Oc4ccc(S(C)(=O)=O)nc4)ccc3[nH]2)S1 (single isomer, unassigned) [Example 67, N-(2-Methoxyethyl)-2-[2-(5-{[6-(methylsulfonyl)pyridin-3-yl]oxy}-1H-indol-2-yl)-4,5-dihydro-1,3-thiazol-5-yl]acetamide]
9 | 28 nM | 167 to 168 °C | CS(=O)(=O)c1ccc(Oc2ccc3[nH]c(C4=NCC(CC(=O)N5CCOCC5)S4)cc3c2)cn1 (single isomer, unassigned) [Example 69, 5-{[6-(Methylsulfonyl)pyridin-3-yl]oxy}-2-[5-(2-morpholin-4-yl-2-oxoethyl)-4,5-dihydro-1,3-thiazol-2-yl]-1H-indole]
10 | 80 nM | 178 to 180 °C | CNC(=O)CC1CN=C(c2cc3cc(Oc4ccc(S(C)(=O)=O)nc4)ccc3[nH]2)S1 (single isomer, unassigned) [Example 78, N-Methyl-2-[2-(5-{[6-(methylsulfonyl)pyridin-3-yl]oxy}-1H-indol-2-yl)-4,5-dihydro-1,3-thiazol-5-yl]acetamide]
11 | 18 nM | 116 to 117 °C | CS(=O)(=O)c1ccc(Oc2cc(OC3CCOCC3)c3[nH]c(C4=NCC(CCO)S4)cc3c2)cc1 (stereo not drawn) [Example 2, 2-(2-{5-[4-(Methylsulfonyl)phenoxy]-7-(tetrahydro-2H-pyran-4-yloxy)-1H-indol-2-yl}-4,5-dihydro-1,3-thiazol-5-yl)ethanol]
12 | 14 nM | – | COCc1ccc(Oc2cc(OC3CCOCC3)c3[nH]c(C4=NCC(CCO)S4)cc3c2)cn1 (stereo not drawn) [Example 7, 2-{2-[5-{[6-(Methoxymethyl)pyridin-3-yl]oxy}-7-(tetrahydro-2H-pyran-4-yloxy)-1H-indol-2-yl]-4,5-dihydro-1,3-thiazol-5-yl}ethanol]
13 | 18 nM | 108 to 110 °C | COCc1ccc(Oc2cc(OC3CCOCC3)c3[nH]c(C4=NCC(CC(C)(C)O)S4)cc3c2)cn1 (stereo not drawn) [Example 8, 1-{2-[5-{[6-(Methoxymethyl)pyridin-3-yl]oxy}-7-(tetrahydro-2H-pyran-4-yloxy)-1H-indol-2-yl]-4,5-dihydro-1,3-thiazol-5-yl}-2-methylpropan-2-ol]
14 | 61 nM | 129 to 130 °C | CC(C)(O)CC1CN=C(c2cc3cc(Oc4ccc(S(C)(=O)=O)cn4)cc(OC4CCOCC4)c3[nH]2)S1 (stereo not drawn) [Example 14, 2-Methyl-1-{2-[5-{[5-(methylsulfonyl)pyridin-2-yl]oxy}-7-(tetrahydro-2H-pyran-4-yloxy)-1H-indol-2-yl]-4,5-dihydro-1,3-thiazol-5-yl}propan-2-ol]
15 | 27 nM | – | COCCOCc1ccc(Oc2cc(OC3CCOCC3)c3[nH]c(C4=NCC(CCO)S4)cc3c2)cn1 (stereo not drawn) [Example 20, 2-{2-[5-({6-[(2-Methoxyethoxy)methyl]pyridin-3-yl}oxy)-7-(tetrahydro-2H-pyran-4-yloxy)-1H-indol-2-yl]-4,5-dihydro-1,3-thiazol-5-yl}ethanol]
16 | 19 nM | – | CS(=O)(=O)Cc1ccc(Oc2cc(OC3CCOCC3)c3[nH]c(C4=NCC(CCO)S4)cc3c2)cn1 (stereo not drawn) [Example 24, 2-{2-[5-({6-[(Methylsulfonyl)methyl]pyridin-3-yl}oxy)-7-(tetrahydro-2H-pyran-4-yloxy)-1H-indol-2-yl]-4,5-dihydro-1,3-thiazol-5-yl}ethanol]
17 | – | 168 to 169 °C | Cc1cc(Oc2ccc(S(C)(=O)=O)nc2)cc2cc(C3=NCC(CC(=O)NC[C@@H](C)O)S3)[nH]c12 (stereo partly drawn) [Example 77, N-[(2R)-2-Hydroxypropyl]-2-[2-(7-methyl-5-{[6-(methylsulfonyl)pyridin-3-yl]oxy}-1H-indol-2-yl)-4,5-dihydro-1,3-thiazol-5-yl]acetamide]
18 | – | 172 to 173 °C | CNC(=O)CC1CN=C(c2cc3cc(Oc4ccc(S(C)(=O)=O)nc4)ccc3[nH]2)S1 (stereo not drawn) [Example 79]
